{
  "source": "patent US11504327B1",
  "about": "“Method of preparing nanoparticles by hot-melt extrusion” (priority 2019, dated 2022)",
  "origin": "cited, not measured here",
  "details": "polyethoxylated oleyl alcohols; Walters et al. 1993",
  "data": [
    {"substance": "oleth-20", "values": [
      {"measurement": "permeation enhancement of ibuprofen across human skin", "result": "worst"}
    ]},
    {"substance": "oleth-2", "values": [
      {"measurement": "permeation enhancement of ibuprofen across human skin", "result": "most effective permeation enhancer"}
    ]}
  ]
}
